Here are results for 1 sequence from patent US6703362B1, “Random peptides that bind to gastro-intestinal tract (GIT) transport receptors and related methods” (Cytogen Corporation, priority 1997, dated 2004).

In one data set the target is BSA (Bos taurus, UniProt P02769). Put plainly: Phage ELISA on BSA (background control protein). In kind it is binding. The conditions noted are these: Table 5. As for the experimental part: (§1) 96 well plates were coated overnight with GIT receptor, BSA and, optionally, IDE (insulin degrading enzyme, an irrelevant His-fusion protein)or hTF. The plates were 5 blocked for one hour with 0.5% BSA-PBS. After clarification, the amplified phage were diluted 1:100 in […] plus 0.05% Tween 20 in PBS and added to the plates. Following incubation of the plates on a rotator for 1 to 2 hours, the plates were washed 5 times with 1% BSA plus 0.05% Tween 20 in PBS. Dilute anti-M13-HRP conjugate (anti-M13 antibody linked to horse radish peroxidase (HRP)) was added to all the wells and the plate was incubated for one hour on a rotator. After the plates were washed 5 times, as described above, TMB substrate was added to the wells. The plates were read at 650 nm absorbance.
BSA, sequence (P02769 25-607): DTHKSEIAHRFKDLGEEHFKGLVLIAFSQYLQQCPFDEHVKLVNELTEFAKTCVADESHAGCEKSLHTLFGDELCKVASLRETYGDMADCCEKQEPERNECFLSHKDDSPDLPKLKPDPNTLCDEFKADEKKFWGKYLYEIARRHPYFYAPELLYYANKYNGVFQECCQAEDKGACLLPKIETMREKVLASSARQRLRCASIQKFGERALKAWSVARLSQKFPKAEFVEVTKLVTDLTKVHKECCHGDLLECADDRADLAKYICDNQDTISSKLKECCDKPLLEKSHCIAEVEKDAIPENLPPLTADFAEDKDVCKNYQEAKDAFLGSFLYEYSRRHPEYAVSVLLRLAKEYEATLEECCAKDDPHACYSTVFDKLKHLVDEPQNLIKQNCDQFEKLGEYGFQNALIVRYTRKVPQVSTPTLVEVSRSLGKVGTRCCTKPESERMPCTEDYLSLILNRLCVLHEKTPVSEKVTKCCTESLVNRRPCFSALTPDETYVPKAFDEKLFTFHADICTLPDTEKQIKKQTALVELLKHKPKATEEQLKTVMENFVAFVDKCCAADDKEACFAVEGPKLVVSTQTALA
(An ELISA detects its analyte on a solid surface through an enzyme-linked reagent.)

The next data set deals with T1, HPT1 (Homo sapiens, UniProt Q12864).
T1 construct: 29-273; made in house
T1 sequence (Q12864 29-273): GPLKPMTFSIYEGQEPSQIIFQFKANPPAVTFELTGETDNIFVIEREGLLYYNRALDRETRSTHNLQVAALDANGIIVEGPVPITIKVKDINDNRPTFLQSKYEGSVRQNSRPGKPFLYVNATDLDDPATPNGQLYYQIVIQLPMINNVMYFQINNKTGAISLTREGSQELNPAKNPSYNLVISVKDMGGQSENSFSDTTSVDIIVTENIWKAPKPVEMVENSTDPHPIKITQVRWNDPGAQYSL
Put plainly: Phage receptor ELISA on HPT1. The format is binding. The conditions noted are these: Table 5. Here is the method:
as §1

Data set [1] can be described thus: Isoelectric points of synthetic peptides. In kind it is physicochemical.

Take “SDHALGTNLRSDNAKEPGDYNCCGNGNSTGRKVFNRRRPSAIPT [HAX42]”: the “OD, binding to BSA” value on BSA is given as 0.071. For the same sequence, at HPT1 (phage panned on HPT-1), the “OD, binding to HPT1” value is 0.32. Moreover, the HPT/BSA on HPT1 (ratio of HPT-1 to BSA binding) is 5. The same sequence had a pI in data set [1] of 9.62.
